Peptide text beside a SMILES is read from it.

We go through one compound from patent US6043212A, “Recombinant C140 receptor, its agonists and antagonists, and nucleic acids encoding the receptor” (COR Therapeutics, Inc., priority 1995, dated 2000).

The assay has as its system rat femoral vein. Description: Vasodilation of isolated rat femoral vein contracted with PGF2α (organ bath). The conditions noted are these: PGF2α 3×10^-5 M, test substance 10^-5 M. As to the method: This effect was also shown by observing vasodilation as a result of stimulation of the rat femoral vein with the above agonist. Adult Sprague-Dawley rats were killed by exsanguination during diethylether anesthesia and the femoral vein was removed and dissected free from fat and connective tissue. Circular preparations of the vein were mounted in an organ bath (5 ml) on two L-formed metal holders (0.2 mm diameter). One of the metal holders was screwed into one of the levers of a Grass FTO C force displacement transducer. The bathing liquid was Kreb's Ringer solution containing 118 mM NaCl, 4.7 mM KCl, 2.5 mM CaCl2, 1.2 MM MgSO4, 24.8 mM NaHCO3, 1.2 mM KH2 PO4 and 5.6 mM glucose. The bathing fluid was continuously treated with 88.5% oxygen-11.5% CO2; the temperature was held at 37° C. The endothelium was removed by bubbling CO2 through the vessels. The basal tension was between 7.5 and 12 mN. The preparations were equilibrated for at least 1 hr before application of agonist and control substances.

`CC[C@H](C)[C@H](NC(=O)[C@H](CC(C)C)NC(=O)[C@@H](N)CO)C(=O)NCC(=O)N[C@@H](CCCNC(=N)N)C(=O)N[C@@H](CC(C)C)C(=O)O` [SLIGRL] (H-SLIGRL-OH): the “Effect on contraction induced by PGF2α” value (endothelium present, FIG. 8a) is reported as “relaxed” and the “Effect on contraction induced by PGF2α” value (endothelium removed, FIG. 8b) is recorded as “not counteracted”.
